In patent publication US20220324912A1, “THERAPEUTIC PEPTIDES” (COHBAR, INC., priority 2019, published 2022):
Non-standard residues stand in square brackets, D forms with d. Residues, ends and D or L forms follow the SMILES beside them. No end group written: not given here.

Key:
[1] = test system: 3T3-L1 adipocytes; assay: Free Fatty Acid Levels in 3T3-L1 Adipocytes (Example 4, 25 μM); assay type: cell-based, mouse; settings: for Free fatty acid levels, Percent of Control Value (percent isoproterenol control): peptides 25 μM, 20-22 hours then 3 hours with isoproterenol 1 nM, 3T3-L1 adipocytes
Description: Following 12-15 days' differentiation, test peptides were added to a final concentration of 25 μM and incubated for 20-22 hours in Adipocyte Maintenance Medium. After 20-22 hours, isoproterenol (1 nM) was added to all wells except untreated controls and test peptides were replenished. Cells were incubated for a further 3 hours in Assay Buffer (Zen-Bio). Free fatty acid concentrations in the media were determined using a Free Fatty Acid Assay Kit (Zen-Bio) according to the manufacturer's instructions using a plate reader (540 nm). Absorbance values were corrected for untreated background and expressed relative to isoproterenol treated cells. Treatment with isoproterenol (1 nM) alone was used as the free fatty acid level stimulatory control. The relative standard deviation of the isoproterenol control was <10%. […] Free fatty acid levels for insulin (100 nM) treatment were <5% of the isoproterenol control value.

[2] = Stability in Mouse Plasma; assay type: in vitro ADME; settings: pooled mouse plasma, 37° C., peptides 100 DM; for remaining at 0.25 h, 100 DM: 15 min; for remaining at 0.5 h, 100 DM: 30 min; for remaining at 1 h, 100 DM: 60 min; for remaining at 2 h, 100 DM: 120 min; for remaining at 3 h, 100 DM: 180 min
Description: Peptides (100 DM) were incubated in pooled mouse plasma at 37° C. and samples were removed and immediately analyzed for the concentration of intact peptide by LC/MS/MS over the course of 3 hours. The percent of peptide remaining in plasma at each time point was calculated relative to the initial peak area (Table 9).

[3] = test system: C2C12 cells; assay: Cell Proliferation in C2C12 Cells (Cyquant DNA dye); assay type: cell-based, mouse; settings: lovastatin 10 μM, 72 hours
Description: The effect of the peptides on cell proliferation was assessed using a DNA dye binding assay in cultured cells such as mouse myoblast cells. Peptides were initially prepared as 10 mM stock in DMSO, diluted to 1 mM in H2O, and added at a final concentration of 10 μM (0.1% DMSO). Lovastatin was used as a growth arrest control at final concentration of […]. […] C2C12 cells were grown in DMEM supplemented with 20% FBS with 100 IU/ml penicillin and 100 μg/ml streptomycin. […] C2C12 cells were seeded at 800 cells per well on 96-well plates. […] Cell proliferation was determined using Cyquant Direct Nucleic Acid Stain (Thermo Fisher Scientific, Waltham, Mass.) according to the manufacturer's instructions. Fluorescence for each sample well on the plate was measured using a Cytation 3 plate reader at Ex/Em=495/535 nm (BioTek, Winooski, Vt.). Activity was calculated relative to 0.1% DMSO untreated control. The relative standard deviation for the lovastatin control was <27%. The cell proliferation for the lovastatin control was <25% of the value for untreated control.

[4] = test system: C2C12 cells; assay: Cellular ROS Levels Induced by TBHP in C2C12 Cells (DCFDA); assay type: cell-based, mouse; settings: sulforaphane 10 µM
Description: The protective or synergistic effect of the peptides on cellular levels of reactive oxygen species (ROS) induced by oxidative stress can be assessed using an assay of ROS in cultured cells such as mouse myoblasts exposed to a suitable oxidative stress. Peptides were initially prepared as 10 mM stock in DMSO, diluted to 1 mM in H2O, and added at a final concentration of 10 μM (0.1% DMSO). […] TBHP was used at final concentration of 100 μM. Sulforaphane at final concentration of 10 µM was used as a protective control against TBHP induced ROS production. […] C2C12 cells were grown in DMEM supplemented with 20% FBS with 100 IU/ml penicillin and 100 μg/ml streptomycin. […] C2C12 cells were seeded at 7,500 cells per well on 96-well plates. […] After 18-20 hours of incubation the cells were loaded with DCFDA for 45 min. TBHP at 100 μM was then added to the appropriate wells for 1 hour. ROS activity was determined using a DCFDA Cellular ROS Detection Assay kit (Abcam, Cambridge, Mass.) according to the manufacturer's instructions. Fluorescence in each sample well on the plate was measured using a Cytation 3 plate reader at Ex/Em=485/535 nm (BioTek, Winooski, Vt.). Activity was calculated relative to TBHP control. The relative standard deviation of the sulforaphane control was <20%. The ROS level produced by the sulforaphane control in the presence of TBHP was 52% of the TBHP control.

[5] = test system: DIO mice; assay: Effects in Diet Induced Obese (DIO) mice, once daily subcutaneous, 10 days (Example 9); assay type: in vivo, mouse; settings: for Difference from Vehicle Control: Decrease from Baseline in Blood Glucose / Difference from Vehicle Control: Decrease from Baseline in Body Weight / Difference from Vehicle Control: Decrease from Baseline in Fat Mass: male DIO mice
Description: C57BL/6 mice were maintained on a high fat diet for 18 weeks to develop diet induced obesity. Animals were randomized to treatment groups based on blood glucose levels and body weight. The peptide of SEQ ID NO: 9 was administered to two groups of male DIO mice once daily by subcutaneous injection at doses of 5.0 or 15 mg/kg/dose for 10 days (N=8 animals per treatment group). An additional group of male DIO mice (n=8) received vehicle (water) alone. Body weight, blood glucose levels and food intake were monitored. Body mass distribution (fat vs lean) was determined by quantitative whole body NMR prior to dosing and at the end of dosing.

[6] = test system: 3T3-L1 mouse adipocytes; assay: Free Fatty Acid Levels in 3T3-L1 Mouse Adipocytes (Example 12, 10 μM); assay type: cell-based; settings: insulin 100 nM, Example 12
Description: The effect of the peptides on fatty acid metabolism can be assessed using an assay of free fatty acid levels in cultured cells such as mouse adipocytes. Peptides were initially prepared as 10 mM stock in DMSO, diluted to 1 mM in H2O, and used at a final concentration of 10 μM (0.1% DMSO). […] After 20-22 hours, 1 nM isoproterenol was added to all wells except untreated controls and test peptides were replenished. Insulin at 100 nM was added to control wells. […] Free fatty acid concentrations in the media were determined using a Free Fatty Acid Assay kit (Zen-Bio) according to the manufacturer's instructions using a Cytation 3 plate reader at 540 nm (BioTek, Winooski, Vt.). Absorbance values were corrected for untreated background and expressed relative to isoproterenol treated cells. Treatment with isoproterenol (1 nM) alone was used as the free fatty acid level stimulatory control. The relative standard deviation of the isoproterenol control was <10%. […] Free fatty acid levels for insulin (100 nM) treatment were <5% of the isoproterenol control value.

% Remaining at 0 min [2] [%]	remaining at 0.25 h, 100 DM [2] [%]	remaining at 0.5 h, 100 DM [2] [%]	remaining at 1 h, 100 DM [2] [%]	remaining at 2 h, 100 DM [2] [%]	remaining at 3 h, 100 DM [2] [%]	Compound	Free fatty acid levels, Percent of Control Value (percent isoproterenol control) [1] [%]	also measured
–	–	–	–	–	–	31 (WAIDEKAVEASGE) [compound 31]	115	–
–	–	–	–	–	–	32 (W[dA]IDEKAVEASGE) [compound 32]	102	–
–	–	–	–	–	–	33 (W[dA]IDEKAVE[dA]SGE) [compound 33]	92	–
100	84.9	82.7	70.9	58.7	45	CC[C@H](C)[C@H](NC(=O)[C@H](C)NC(=O)[C@H](CO)NC(=O)CNC(=O)[C@@H]1CCCN1C(=O)[C@H](CC(C)C)NC(=O)[C@@H](N)CCCNC(=N)N)C(=O)N[C@@H](CC(C)C)C(=O)N[C@H](C(=O)N[C@@H](CC(N)=O)C(=O)N1CCC[C@H]1C(=O)N[C@H](C(=O)N[C@@H](CC(C)C)C(=O)NCC(=O)N[C@@H](Cc1c[nH]c2ccccc12)C(=O)N[C@H](C(=O)N[C@@H](Cc1c[nH]c2ccccc12)C(=O)N[C@H](C(=O)O)C(C)C)C(C)C)C(C)C)[C@@H](C)O [compound 8] (H-RLPGSAILTNPVLGWVWV-OH)	–	–
100	90.5	81	72	56.5	46.6	CC[C@H](C)[C@H](NC(=O)[C@@H](C)NC(=O)[C@H](CO)NC(=O)CNC(=O)[C@@H]1CCCN1C(=O)[C@H](CC(C)C)NC(=O)[C@@H](N)CCCNC(=N)N)C(=O)N[C@@H](CC(C)C)C(=O)N[C@H](C(=O)N[C@@H](CC(N)=O)C(=O)N1CCC[C@H]1C(=O)N[C@H](C(=O)N[C@@H](CC(C)C)C(=O)NCC(=O)N[C@@H](Cc1c[nH]c2ccccc12)C(=O)N[C@H](C(=O)N[C@@H](Cc1c[nH]c2ccccc12)C(=O)N[C@H](C(=O)O)C(C)C)C(C)C)C(C)C)[C@@H](C)O [compound 9] (H-RLPGS[dA]ILTNPVLGWVWV-OH)	–	–
100	76.5	58.1	44.4	18.1	8.9	CC[C@H](C)[C@H](NC(=O)[C@@H](C)NC(=O)[C@H](CO)NC(=O)CNC(=O)[C@@H]1CCCN1C(=O)[C@H](CC(C)C)NC(=O)[C@@H](N)CCCNC(=N)N)C(=O)N[C@@H](CC(C)C)C(=O)N[C@H](C(=O)N[C@@H](CC(N)=O)C(=O)N1CCC[C@H]1C(=O)N[C@H](C(=O)N[C@@H](CC(C)C)C(=O)NCC(=O)N[C@@H](Cc1c[nH]c2ccccc12)C(=O)N[C@H](C(=O)O)C(C)C)C(C)C)[C@@H](C)O [compound 10] (H-RLPGS[dA]ILTNPVLGWV-OH)	–	–
–	–	–	–	–	–	CC[C@H](C)C(=O)O[C@H]1C[C@@H](C)C=C2C=C[C@H](C)[C@H](CC[C@@H]3C[C@@H](O)CC(=O)O3)[C@H]21 [lovastatin, reference compound]	–	Cell proliferation, % of the value for untreated control [3]: < 25%
–	–	–	–	–	–	C[S+]([O-])CCCCN=C=S (stereo not shown) [sulforaphane, reference compound]	–	ROS level in the presence of TBHP, % of the TBHP control [4]: 52%
–	–	–	–	–	–	RLPGS(dA)ILTNPVLGWVWV (RLPGS[dA]ILTNPVLGWVWV) [SEQ ID NO: 9]	–	Difference from Vehicle Control: Decrease from Baseline in Blood Glucose ([5]; 5.0 mg/kg/dose): 7.0 mg/dL; Difference from Vehicle Control: Decrease from Baseline in Body Weight ([5]; 5.0 mg/kg/dose): 1.79%; Difference from Vehicle Control: Decrease from Baseline in Fat Mass ([5]; 5.0 mg/kg/dose): 0.56 g; Difference from Vehicle Control: Decrease from Baseline in Blood Glucose ([5]; 15.0 mg/kg/dose): 18.0 mg/dL; Difference from Vehicle Control: Decrease from Baseline in Body Weight ([5]; 15.0 mg/kg/dose): 1.96%; Difference from Vehicle Control: Decrease from Baseline in Fat Mass ([5]; 15.0 mg/kg/dose): 0.86 g; Body weight loss compared to vehicle (in words) ([5]; 5.0 or 15 mg/kg/dose): greater body weight loss; Decrease in fat mass from baseline compared to vehicle (in words) ([5]; 5.0 or 15 mg/kg/dose): greater decrease in fat mass; Reduction in blood glucose compared to vehicle (in words) ([5]; 5.0 or 15 mg/kg/dose): greater reduction in blood glucose
–	–	–	–	–	–	insulin [reference compound]	–	Free fatty acid levels, % of isoproterenol control value ([1]; insulin 100 nM, Example 4): < 5%; Free fatty acid levels, % of isoproterenol control value [6]: < 5%
